Results on three molecules are retold here after patent US20150284381A1, “AMINO-PYRIDINE-CONTAINING SPLEEN TYROSINE KINASE (SYK) INHIBITORS” (MERCK SHARP & DOHME CORP., priority 2012, published 2015).

Data set [1] has as its target T1, recombinant human GST-Syk (Homo sapiens, UniProt P43405).
T1 construct: purchased Carna Biosciences 08-176
Briefly: Homogeneous Time-Resolved Fluorescence (HTRF) assay for the recombinant human Syk enzyme. Format: biochemical. To be noted: recombinant human GST-Syk 5 pM, ATP 25 μM, 45 min at rt, read-out: rhSyk. Background: TR-FRET usually uses a lanthanide donor and a delayed reading to cut background.

The conditions of data set [2]: phase II clinical trial, allergic rhinitis; cited from earlier work.
The subject of another data set is PGD2. To be noted: dosed intranasally, phase I/II study, allergic rhinitis; cited from earlier work.

Regarding `Cc1cc(Nc2cc(-c3cn[nH]c3)ccn2)nc(-c2cnc([C@@]3(O)CCc4cc(C(=O)O)ccc43)s2)c1` [Example 5A, (1R)-1-hydroxy-1-[5-(4-methyl-6-{[4-(1H-pyrazol-4-yl)pyridin-2-yl]amino}pyridin-2-yl)-1,3-thiazol-2-yl]-2,3-dihydro-1H-indene-5-carboxylic acid], the IC50 in data set [1] came out at 0.04 nM.
Still for that read-out and setting: the figure for `Cc1cc(Nc2cc(-c3c[nH]nn3)ccn2)nc(-c2cnc([C@@]3(O)CCCc4cc(C(=O)N(C)C)ccc43)s2)c1` [Example 6A, (5R)-5-hydroxy-N,N-dimethyl-5-[5-(4-methyl-6-{[4-(1H-1,2,3-triazol-4-yl)pyridin-2-yl]amino}pyridin-2-yl)-1,3-thiazol-2-yl]-5,6,7,8-tetrahydronaphthalene-2-carboxamide] is 0.73 nM.
`Oc1cccc(Nc2ncc(F)c(Nc3cccc(O)c3)n2)c1` [Example R112]: the efficacy versus placebo entry in data set [2] is “lack of efficacy versus placebo”. Moreover, in the data set on PGD2, the PGD2 entry is reported as “statistically significant decrease” and the clinical safety result is “safe across a range of indicators”.
